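1) Cells in 96-well plates. 2) Compound, 48 h, 5 concentrations. 3) Linear interpolation between surrounding doses. 4) Unreached endpoint = highest concentration. At the GI50, growth is halved.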 Active and inactive are the calls of the source. Cut-off read from the data, not from the text of the source: active = GI50 up to about 1.1 µM and inactive = higher.
Experiments:
Assay in all cases: NCI-60 cell line screen, 48 h
Malme-3M = system: Malme-3M
SNB-75 = system: SNB-75
OVCAR-4 = system: OVCAR-4
Hs-578T = system: Hs-578T
NCI-H226 = system: NCI-H226
NCI-H23 = system: NCI-H23
M14 = system: M14
A498 = system: A498
SK-MEL-2 = system: SK-MEL-2
MDA-MB-231 = system: MDA-MB-231
HOP-62 = system: HOP-62
RPMI-8226 = system: RPMI-8226
MOLT-4 = system: MOLT-4
HCC 2998 = system: HCC 2998
A549 = system: A549
HCT-15 = system: HCT-15
TK-10 = system: TK-10
OVCAR-5 = system: OVCAR-5
SF-539 = system: SF-539
T47D = system: T47D
EKVX = system: EKVX
SF-268 = system: SF-268
KM12 = system: KM12
RXF 393 = system: RXF 393
NCI-H522 = system: NCI-H522
LOX IMVI = system: LOX IMVI
UO-31 = system: UO-31
DU-145 = system: DU-145
ACHN = system: ACHN
MDA-MB-435 = system: MDA-MB-435
NCI-H460 = system: NCI-H460
UACC-62 = system: UACC-62
SN12C = system: SN12C
MCF7 = system: MCF7
U-251 = system: U-251
SK-OV-3 = system: SK-OV-3
HL-60 = system: HL-60
SK-MEL-5 = system: SK-MEL-5
COLO 205 = system: COLO 205
SR = system: SR
SF-295 = system: SF-295
OVCAR-8 = system: OVCAR-8
IGROV-1 = system: IGROV-1
SW-620 = system: SW-620
NCI/ADR-RES = system: NCI/ADR-RES
786-0 = system: 786-0
MDA-N = system: MDA-N
SK-MEL-28 = system: SK-MEL-28
OVCAR-3 = system: OVCAR-3
HCT-116 = system: HCT-116
CAKI-1 = system: CAKI-1
SNB-19 = system: SNB-19
UACC-257 = system: UACC-257
CCRF-CEM = system: CCRF-CEM
K562 = system: K562
HT-29 = system: HT-29
PC-3 = system: PC-3
BT-549 = system: BT-549
HOP-92 = system: HOP-92

**Q.** How did the GI50 (Malme-3M) turn out when `FC1(F)ON2CCc3ccccc3C2[C@H]1c1ccccc1` (stereo not given in full) was run?
**A.** 2.22 µM (inactive)

**Q.** What about the GI50 (SNB-75) of the same compound?
**A.** 16.7 µM (inactive)

**Q.** What about the GI50 (OVCAR-4) of the same compound?
**A.** > 10 µM (inactive)

**Q.** What about the GI50 (Hs-578T) of the same compound?
**A.** 4.25 µM (inactive)

**Q.** What about the GI50 (NCI-H226) of the same compound?
**A.** 35.8 µM (inactive)

**Q.** And the GI50 (NCI-H23)?
**A.** > 10 µM (inactive)

**Q.** And the GI50 (M14)?
**A.** 82 µM (inactive)

**Q.** What about the GI50 (A498) of the same compound?
**A.** > 10 µM (inactive)

**Q.** And the GI50 (SK-MEL-2)?
**A.** > 10 µM (inactive)

**Q.** And the GI50 (MDA-MB-231)?
**A.** 48.9 µM (inactive)

**Q.** And the GI50 (HOP-62)?
**A.** 90.4 µM (inactive)

**Q.** And the GI50 (RPMI-8226)?
**A.** > 10 µM (inactive)

**Q.** What about the GI50 (MOLT-4) of the same compound?
**A.** > 10 µM (inactive)

**Q.** What about the GI50 (HCC 2998) of the same compound?
**A.** > 10 µM (inactive)

**Q.** And the GI50 (A549)?
**A.** > 10 µM (inactive)

**Q.** And the GI50 (HCT-15)?
**A.** > 10 µM

**Q.** What about the GI50 (TK-10) of the same compound?
**A.** > 10 µM (inactive)

**Q.** What about the GI50 (OVCAR-5) of the same compound?
**A.** > 10 µM (inactive)

**Q.** What about the GI50 (SF-539) of the same compound?
**A.** 91.8 µM (inactive)

**Q.** And the GI50 (T47D)?
**A.** 55.8 µM (inactive)

**Q.** What about the GI50 (EKVX) of the same compound?
**A.** > 10 µM (inactive)

**Q.** What about the GI50 (SF-268) of the same compound?
**A.** > 10 µM (inactive)

**Q.** What about the GI50 (KM12) of the same compound?
**A.** > 10 µM (inactive)

**Q.** What about the GI50 (RXF 393) of the same compound?
**A.** 76.4 µM (inactive)

**Q.** And the GI50 (NCI-H522)?
**A.** > 10 µM (inactive)

**Q.** What about the GI50 (LOX IMVI) of the same compound?
**A.** 91 µM (inactive)

**Q.** What about the GI50 (UO-31) of the same compound?
**A.** > 100 µM (inactive)

**Q.** What about the GI50 (DU-145) of the same compound?
**A.** > 10 µM (inactive)

**Q.** What about the GI50 (ACHN) of the same compound?
**A.** > 10 µM (inactive)

**Q.** And the GI50 (MDA-MB-435)?
**A.** > 10 µM (inactive)

**Q.** And the GI50 (NCI-H460)?
**A.** > 10 µM (inactive)

**Q.** And the GI50 (UACC-62)?
**A.** > 10 µM (inactive)

**Q.** And the GI50 (SN12C)?
**A.** > 10 µM (inactive)

**Q.** And the GI50 (MCF7)?
**A.** > 10 µM (inactive)

**Q.** What about the GI50 (U-251) of the same compound?
**A.** 74 µM (inactive)

**Q.** What about the GI50 (SK-OV-3) of the same compound?
**A.** > 10 µM (inactive)

**Q.** And the GI50 (HL-60)?
**A.** > 10 µM (inactive)

**Q.** What about the GI50 (SK-MEL-5) of the same compound?
**A.** > 10 µM (inactive)

**Q.** And the GI50 (COLO 205)?
**A.** > 10 µM (inactive)

**Q.** And the GI50 (SR)?
**A.** > 10 µM (inactive)

**Q.** What about the GI50 (SF-295) of the same compound?
**A.** > 10 µM (inactive)

**Q.** What about the GI50 (OVCAR-8) of the same compound?
**A.** 39.9 µM (inactive)

**Q.** And the GI50 (IGROV-1)?
**A.** > 10 µM (inactive)

**Q.** What about the GI50 (SW-620) of the same compound?
**A.** > 10 µM (inactive)

**Q.** What about the GI50 (NCI/ADR-RES) of the same compound?
**A.** 92.9 µM (inactive)

**Q.** What about the GI50 (786-0) of the same compound?
**A.** 26.4 µM (inactive)

**Q.** And the GI50 (MDA-N)?
**A.** > 10 µM (inactive)

**Q.** What about the GI50 (SK-MEL-28) of the same compound?
**A.** > 10 µM (inactive)

**Q.** And the GI50 (OVCAR-3)?
**A.** 21 µM (inactive)

**Q.** And the GI50 (HCT-116)?
**A.** 65.6 µM (inactive)

**Q.** What about the GI50 (CAKI-1) of the same compound?
**A.** > 10 µM (inactive)

**Q.** What about the GI50 (SNB-19) of the same compound?
**A.** > 10 µM (inactive)

**Q.** And the GI50 (UACC-257)?
**A.** > 10 µM (inactive)

**Q.** What about the GI50 (CCRF-CEM) of the same compound?
**A.** > 100 µM (inactive)

**Q.** And the GI50 (K562)?
**A.** > 10 µM (inactive)

**Q.** And the GI50 (HT-29)?
**A.** > 10 µM (inactive)

**Q.** What about the GI50 (PC-3) of the same compound?
**A.** > 10 µM (inactive)

**Q.** And the GI50 (BT-549)?
**A.** > 10 µM (inactive)

**Q.** Which GI50 (Malme-3M) does the source give for `CC(NC(=O)Cc1ccccc1)NC(=O)C(C)C(=O)Nc1ccccc1` (stereo not given) here?
**A.** 16.1 µM (inactive)

**Q.** And the GI50 (SNB-75)?
**A.** 24 µM (inactive)

**Q.** What about the GI50 (OVCAR-4) of the same compound?
**A.** > 100 µM (inactive)

**Q.** What about the GI50 (Hs-578T) of the same compound?
**A.** 23.7 µM (inactive)

**Q.** What about the GI50 (NCI-H226) of the same compound?
**A.** 23.3 µM (inactive)

**Q.** And the GI50 (HOP-92)?
**A.** 44.2 µM (inactive)

**Q.** And the GI50 (NCI-H23)?
**A.** > 100 µM (inactive)

**Q.** And the GI50 (M14)?
**A.** > 100 µM (inactive)

**Q.** And the GI50 (SK-MEL-2)?
**A.** > 100 µM (inactive)

**Q.** What about the GI50 (MDA-MB-231) of the same compound?
**A.** 65.6 µM (inactive)

**Q.** What about the GI50 (RPMI-8226) of the same compound?
**A.** > 100 µM (inactive)

**Q.** And the GI50 (MOLT-4)?
**A.** > 100 µM (inactive)

**Q.** What about the GI50 (A549) of the same compound?
**A.** > 100 µM (inactive)

**Q.** What about the GI50 (HCT-15) of the same compound?
**A.** > 100 µM

**Q.** What about the GI50 (TK-10) of the same compound?
**A.** 33.3 µM (inactive)

**Q.** What about the GI50 (OVCAR-5) of the same compound?
**A.** > 100 µM (inactive)

**Q.** What about the GI50 (SF-539) of the same compound?
**A.** > 100 µM (inactive)

**Q.** And the GI50 (T47D)?
**A.** > 100 µM (inactive)

**Q.** What about the GI50 (EKVX) of the same compound?
**A.** > 100 µM (inactive)

**Q.** What about the GI50 (SF-268) of the same compound?
**A.** 36.6 µM (inactive)

**Q.** What about the GI50 (KM12) of the same compound?
**A.** > 100 µM (inactive)

**Q.** What about the GI50 (RXF 393) of the same compound?
**A.** 47.1 µM (inactive)

**Q.** And the GI50 (NCI-H522)?
**A.** 23.1 µM (inactive)

**Q.** And the GI50 (UO-31)?
**A.** 43.7 µM (inactive)

**Q.** And the GI50 (DU-145)?
**A.** > 100 µM (inactive)

**Q.** What about the GI50 (ACHN) of the same compound?
**A.** 41.6 µM (inactive)

**Q.** And the GI50 (MDA-MB-435)?
**A.** > 100 µM (inactive)

**Q.** What about the GI50 (NCI-H460) of the same compound?
**A.** > 100 µM (inactive)

**Q.** And the GI50 (UACC-62)?
**A.** > 100 µM (inactive)

**Q.** What about the GI50 (SN12C) of the same compound?
**A.** 36.1 µM (inactive)

**Q.** And the GI50 (MCF7)?
**A.** > 100 µM (inactive)

**Q.** And the GI50 (U-251)?
**A.** 43.3 µM (inactive)

**Q.** And the GI50 (SK-OV-3)?
**A.** 51.6 µM (inactive)

**Q.** And the GI50 (HL-60)?
**A.** > 10 µM (inactive)

**Q.** And the GI50 (SK-MEL-5)?
**A.** > 100 µM (inactive)

**Q.** And the GI50 (COLO 205)?
**A.** > 100 µM (inactive)

**Q.** And the GI50 (SR)?
**A.** > 100 µM (inactive)

**Q.** And the GI50 (SF-295)?
**A.** > 100 µM (inactive)

**Q.** And the GI50 (OVCAR-8)?
**A.** 34.8 µM (inactive)

**Q.** What about the GI50 (IGROV-1) of the same compound?
**A.** 61.5 µM (inactive)

**Q.** And the GI50 (SW-620)?
**A.** > 100 µM (inactive)

**Q.** What about the GI50 (NCI/ADR-RES) of the same compound?
**A.** > 100 µM (inactive)

**Q.** And the GI50 (786-0)?
**A.** 52.2 µM (inactive)

**Q.** And the GI50 (MDA-N)?
**A.** > 100 µM (inactive)

**Q.** What about the GI50 (HCT-116) of the same compound?
**A.** > 100 µM (inactive)

**Q.** What about the GI50 (CAKI-1) of the same compound?
**A.** 66.5 µM (inactive)

**Q.** What about the GI50 (SNB-19) of the same compound?
**A.** 24 µM (inactive)

**Q.** And the GI50 (UACC-257)?
**A.** > 100 µM (inactive)

**Q.** And the GI50 (K562)?
**A.** > 100 µM (inactive)

**Q.** What about the GI50 (HT-29) of the same compound?
**A.** > 100 µM (inactive)

**Q.** And the GI50 (PC-3)?
**A.** > 100 µM (inactive)

**Q.** And the GI50 (BT-549)?
**A.** 43.5 µM (inactive)
